± gives the expanded uncertainty stated by the source.

The conditions of this data set: 100 kPa, Liquid, Vibrating tube method.

For `CCC1CCC(=O)O1` (stereo not given) [2(3H)-furanone, 5-ethyldihydro-], the mass density runs as follows: (288.15 K) 1029.16 ± 0.54 kg/m3; (293.15 K) 1024.74 ± 0.54 kg/m3; (298.15 K) 1020.33 ± 0.53 kg/m3; (303.15 K) 1015.91 ± 0.53 kg/m3; (308.15 K) 1011.49 ± 0.53 kg/m3; (313.15 K) 1007.07 ± 0.53 kg/m3. Besides, the mass density by setting is: (318.15 K) 1002.65 ± 0.53 kg/m3; (323.15 K) 998.229 ± 0.53 kg/m3.

For the compound `CC1CCCC(=O)O1` (stereo not given) [2H-pyran-2-one, tetrahydro-6-methyl-], the mass density runs as follows: (288.15 K) 1053.81 ± 0.51 kg/m3; (293.15 K) 1049.47 ± 0.51 kg/m3; (298.15 K) 1045.14 ± 0.51 kg/m3; (303.15 K) 1040.81 ± 0.51 kg/m3; (308.15 K) 1036.48 ± 0.51 kg/m3; (313.15 K) 1032.15 ± 0.51 kg/m3. Moreover, the mass density was 1027.82 ± 0.51 kg/m3 (318.15 K) and 1023.51 ± 0.51 kg/m3 (323.15 K).

With `CC1=CCC(=O)O1` [5-methylfuran-2(3H)-one], the mass density reads like this: (288.15 K) 1099.32 ± 0.7 kg/m3; (293.15 K) 1093.94 ± 0.7 kg/m3; (298.15 K) 1088.55 ± 0.69 kg/m3; (303.15 K) 1083.16 ± 0.69 kg/m3; (308.15 K) 1077.77 ± 0.69 kg/m3; (313.15 K) 1072.38 ± 0.68 kg/m3. Also, the mass density (318.15 K) stood at 1066.98 ± 0.68 kg/m3 and the mass density (323.15 K) was determined as 1061.58 ± 0.67 kg/m3.

`O=C1CCCO1` [γ-butyrolactone]: the mass density by setting is: (288.15 K) 1134.26 ± 0.51 kg/m3; (293.15 K) 1129.35 ± 0.51 kg/m3; (298.15 K) 1124.44 ± 0.51 kg/m3; (303.15 K) 1119.53 ± 0.51 kg/m3; (308.15 K) 1114.61 ± 0.51 kg/m3; (313.15 K) 1109.69 ± 0.51 kg/m3. Also, the mass density reads like this: (318.15 K) 1104.77 ± 0.51 kg/m3; (323.15 K) 1099.86 ± 0.51 kg/m3.

For `CC1CCC(=O)O1` (stereo not given) [γ-valerolactone], the mass density is recorded as 1058.51 ± 0.51 kg/m3 (288.15 K); 1053.81 ± 0.51 kg/m3 (293.15 K); 1049.1 ± 0.51 kg/m3 (298.15 K); 1044.4 ± 0.51 kg/m3 (303.15 K); 1039.69 ± 0.51 kg/m3 (308.15 K); 1034.98 ± 0.51 kg/m3 (313.15 K). Further, the mass density (318.15 K) was found to be 1030.27 ± 0.51 kg/m3 and the mass density (323.15 K) is 1025.56 ± 0.51 kg/m3.

Source of the values: the NIST ThermoML archive (doi:10.1021/acs.jced.8b01146).
